# Laboratory results published in ChEMBL document CHEMBL5291721, “A preclinical secondary pharmacology resource illuminates target-adverse drug reaction associations of marketed drugs” (Nat Commun, 2023).
# Experiments:
# [1] = target: T1, Alpha-2B adrenergic receptor (Homo sapiens, UniProt P18089)
# T1 sequence (P18089 whole entry): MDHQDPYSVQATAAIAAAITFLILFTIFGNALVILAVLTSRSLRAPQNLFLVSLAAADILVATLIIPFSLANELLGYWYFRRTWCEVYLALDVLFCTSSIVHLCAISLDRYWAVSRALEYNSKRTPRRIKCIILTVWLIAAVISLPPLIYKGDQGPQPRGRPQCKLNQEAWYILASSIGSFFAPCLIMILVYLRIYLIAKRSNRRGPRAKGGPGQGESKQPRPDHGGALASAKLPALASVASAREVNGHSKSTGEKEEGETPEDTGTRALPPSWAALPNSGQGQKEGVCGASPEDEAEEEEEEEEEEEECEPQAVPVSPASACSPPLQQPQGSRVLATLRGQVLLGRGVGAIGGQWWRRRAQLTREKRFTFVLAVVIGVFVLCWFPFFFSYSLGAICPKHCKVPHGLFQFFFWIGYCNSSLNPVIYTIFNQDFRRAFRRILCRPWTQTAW
# [2] = target: T2, Alpha-2C adrenergic receptor (Homo sapiens, UniProt P18825); assay type: functional
# T2 sequence (P18825 whole entry): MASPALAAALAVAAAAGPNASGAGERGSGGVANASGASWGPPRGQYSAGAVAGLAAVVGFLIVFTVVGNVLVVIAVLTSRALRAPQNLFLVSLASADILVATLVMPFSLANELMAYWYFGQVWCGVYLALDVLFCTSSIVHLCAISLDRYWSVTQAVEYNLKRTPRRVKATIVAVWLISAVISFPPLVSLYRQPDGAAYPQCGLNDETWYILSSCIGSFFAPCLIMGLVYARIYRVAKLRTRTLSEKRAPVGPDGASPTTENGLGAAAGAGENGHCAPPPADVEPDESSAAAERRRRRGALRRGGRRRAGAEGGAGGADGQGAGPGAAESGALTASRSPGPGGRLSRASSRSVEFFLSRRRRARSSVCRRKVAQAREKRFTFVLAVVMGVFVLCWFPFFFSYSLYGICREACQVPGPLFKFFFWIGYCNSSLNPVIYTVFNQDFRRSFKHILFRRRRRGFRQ
# Estrogen receptor = target: T3, Estrogen receptor (Homo sapiens, UniProt P03372)
# T3 sequence (P03372 whole entry): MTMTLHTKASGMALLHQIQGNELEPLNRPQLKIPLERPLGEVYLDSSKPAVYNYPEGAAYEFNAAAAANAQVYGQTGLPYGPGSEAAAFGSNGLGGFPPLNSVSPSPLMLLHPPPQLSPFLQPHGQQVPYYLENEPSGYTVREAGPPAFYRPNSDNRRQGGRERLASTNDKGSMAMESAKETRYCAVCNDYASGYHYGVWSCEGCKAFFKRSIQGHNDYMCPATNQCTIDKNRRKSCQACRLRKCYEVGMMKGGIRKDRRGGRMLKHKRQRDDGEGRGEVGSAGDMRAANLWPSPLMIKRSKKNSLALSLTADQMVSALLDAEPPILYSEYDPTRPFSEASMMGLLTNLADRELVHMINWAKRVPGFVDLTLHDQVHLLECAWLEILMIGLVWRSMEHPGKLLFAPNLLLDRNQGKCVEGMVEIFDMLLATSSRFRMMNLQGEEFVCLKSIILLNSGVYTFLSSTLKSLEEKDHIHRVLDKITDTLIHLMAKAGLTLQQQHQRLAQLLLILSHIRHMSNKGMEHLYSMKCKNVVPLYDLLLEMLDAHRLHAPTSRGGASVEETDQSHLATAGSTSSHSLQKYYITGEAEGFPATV
# [3] = target: 5-hydroxytryptamine receptor 2A (Homo sapiens, UniProt P28223); assay type: functional, cell-based
# Mu-type opioid receptor = Mu-type opioid receptor (Homo sapiens, UniProt P35372); experiment: biochemical; assay type: functional
# Progesterone receptor = target: T4, Progesterone receptor (Homo sapiens, UniProt P06401); assay type: functional
# T4 sequence (P06401 whole entry): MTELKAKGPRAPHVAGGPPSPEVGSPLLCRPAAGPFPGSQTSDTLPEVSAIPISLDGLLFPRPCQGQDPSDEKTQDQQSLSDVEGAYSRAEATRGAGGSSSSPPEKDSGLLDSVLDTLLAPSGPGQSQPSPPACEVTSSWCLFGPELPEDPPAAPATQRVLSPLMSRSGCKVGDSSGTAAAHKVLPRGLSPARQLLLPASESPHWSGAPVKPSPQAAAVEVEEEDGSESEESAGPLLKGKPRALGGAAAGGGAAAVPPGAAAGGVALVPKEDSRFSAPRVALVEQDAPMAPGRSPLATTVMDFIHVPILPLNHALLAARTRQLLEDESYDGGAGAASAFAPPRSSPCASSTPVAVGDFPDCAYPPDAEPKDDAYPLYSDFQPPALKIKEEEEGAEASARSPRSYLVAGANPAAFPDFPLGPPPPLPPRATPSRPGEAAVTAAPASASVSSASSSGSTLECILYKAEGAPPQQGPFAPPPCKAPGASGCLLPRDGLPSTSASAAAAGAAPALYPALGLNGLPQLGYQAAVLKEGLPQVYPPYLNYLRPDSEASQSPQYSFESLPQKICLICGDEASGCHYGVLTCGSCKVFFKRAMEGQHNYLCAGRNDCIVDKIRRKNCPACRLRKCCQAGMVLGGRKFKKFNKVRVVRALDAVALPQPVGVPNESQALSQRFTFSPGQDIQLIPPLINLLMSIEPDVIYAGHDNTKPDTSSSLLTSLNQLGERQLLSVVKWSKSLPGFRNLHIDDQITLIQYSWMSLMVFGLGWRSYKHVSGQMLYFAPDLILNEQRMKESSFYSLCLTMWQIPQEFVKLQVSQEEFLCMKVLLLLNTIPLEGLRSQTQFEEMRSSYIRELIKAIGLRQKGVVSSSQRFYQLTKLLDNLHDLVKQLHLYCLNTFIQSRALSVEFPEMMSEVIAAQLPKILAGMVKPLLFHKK
# Histamine H3 receptor = Histamine H3 receptor (Homo sapiens, UniProt Q9Y5N1)
# Also: assay procedure not described here.
# Mu-type opioid receptor, sequence (P35372 whole entry): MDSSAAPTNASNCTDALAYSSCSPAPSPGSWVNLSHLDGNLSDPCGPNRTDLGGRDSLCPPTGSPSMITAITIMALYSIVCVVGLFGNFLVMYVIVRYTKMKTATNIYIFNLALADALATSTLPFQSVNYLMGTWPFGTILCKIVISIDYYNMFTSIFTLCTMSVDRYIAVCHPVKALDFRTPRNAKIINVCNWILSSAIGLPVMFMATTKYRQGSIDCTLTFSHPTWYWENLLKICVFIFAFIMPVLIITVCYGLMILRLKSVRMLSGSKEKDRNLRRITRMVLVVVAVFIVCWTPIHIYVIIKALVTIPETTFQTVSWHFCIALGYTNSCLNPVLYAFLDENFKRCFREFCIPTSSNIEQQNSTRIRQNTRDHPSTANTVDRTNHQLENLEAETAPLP
# Histamine H3 receptor, sequence (Q9Y5N1 whole entry): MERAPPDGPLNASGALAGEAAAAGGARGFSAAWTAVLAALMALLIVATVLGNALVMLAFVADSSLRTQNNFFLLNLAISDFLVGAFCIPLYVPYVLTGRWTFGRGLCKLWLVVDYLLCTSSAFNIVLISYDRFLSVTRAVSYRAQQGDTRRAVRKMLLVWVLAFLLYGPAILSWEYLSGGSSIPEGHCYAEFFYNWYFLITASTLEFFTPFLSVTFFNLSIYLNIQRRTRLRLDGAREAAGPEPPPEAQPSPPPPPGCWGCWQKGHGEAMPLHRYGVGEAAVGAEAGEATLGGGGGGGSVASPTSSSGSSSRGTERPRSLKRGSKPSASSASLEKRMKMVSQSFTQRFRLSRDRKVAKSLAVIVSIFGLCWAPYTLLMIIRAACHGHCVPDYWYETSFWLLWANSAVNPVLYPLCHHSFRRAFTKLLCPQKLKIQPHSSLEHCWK
# 5-hydroxytryptamine receptor 2A, sequence (P28223 whole entry): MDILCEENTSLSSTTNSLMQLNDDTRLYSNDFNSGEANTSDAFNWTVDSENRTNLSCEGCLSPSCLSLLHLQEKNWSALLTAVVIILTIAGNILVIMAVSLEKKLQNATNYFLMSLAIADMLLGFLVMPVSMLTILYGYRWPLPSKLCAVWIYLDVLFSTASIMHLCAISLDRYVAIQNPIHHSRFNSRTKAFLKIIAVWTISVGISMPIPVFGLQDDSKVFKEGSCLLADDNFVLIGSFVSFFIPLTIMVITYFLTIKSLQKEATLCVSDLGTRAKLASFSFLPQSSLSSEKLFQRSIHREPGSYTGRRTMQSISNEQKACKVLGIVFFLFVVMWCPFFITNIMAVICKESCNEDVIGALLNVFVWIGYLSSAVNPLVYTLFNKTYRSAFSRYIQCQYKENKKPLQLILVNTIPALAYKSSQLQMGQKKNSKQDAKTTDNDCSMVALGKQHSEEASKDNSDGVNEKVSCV
Compound,AC50 [1] [µM],AC50 [2] [µM],AC50 (Estrogen receptor) [µM],AC50 [3] [µM],AC50 (Mu-type opioid receptor) [µM],AC50 (Progesterone receptor) [µM],AC50 (Histamine H3 receptor) [µM]
CN1c2ccccc2C(NCCCCCCC(=O)O)c2ccc(Cl)cc2S1(=O)=O (centres undefined) [TIANEPTINE],> 30,> 30,> 30,> 30,2.6,> 30,> 30
N=C(N)NCCCCCCC(=O)NC(O)C(=O)NCCCCNCCCN (centres undefined),> 30,> 30,> 30,> 30,> 30,> 30,> 30
CCOC(=O)NNc1ccc(N(CC)CC(C)O)nn1 (centres undefined) [CADRALAZINE],> 30,> 30,> 30,> 30,> 30,> 30,> 30
CC(C)c1cc2c(cc1S(=O)(=O)O)[C@@]1(C)CCC[C@@](C)(C(=O)O)[C@@H]1CC2 [ECABET],> 30,> 30,> 30,> 30,> 30,> 30,> 30
Cc1ccc(=O)n(-c2ccccc2)c1 [PIRFENIDONE],> 30,> 30,> 30,> 30,> 30,> 30,> 30
CCCCCCOC(=O)CCC(=O)CN [HEXAMINOLEVULINATE],> 30,> 30,> 30,> 30,> 30,> 30,> 30
COC(=O)N[C@@H](C)CNc1nccc(-c2cn(C(C)C)nc2-c2cc(Cl)cc(NS(C)(=O)=O)c2F)n1 [ENCORAFENIB],> 30,> 30,> 30,> 30,> 30,> 30,> 30
